“Also recorded” adds a separate entry of the source. Read-outs that look alike come from different tables or passages of the source.
Key:
[1] = system: SV-40 human corneal epithelial cells (HCEC); experiment: TRANSWELL assay, prolonged (24 hour) exposure to liquid crystal, Calcein-AM readout; type: cell-based; details: 50 μL liquid crystal in upper chamber, confluent and sub-confluent SV-40 HCEC
Procedure: FIGS. 5A and 5B present the results of additional experiments to evaluate the toxicity of two different liquid crystals, 5CB and TL-205, following prolonged exposure to cells. For these experiments, TRANSWELL assays were carried out in which cell cultures were plated onto membranes in a TRANSWELL plate such that they were fed from below by liquid media while in continual contact with the liquid crystal, which was directly overlaid on the cells themselves. Briefly, SV-40 human corneal epithelial cells (HCEC) were grown in SHEM+10% fetal bovine serum. Cells were removed from T-75 tissue culture plates via trypsinization, and counted using a hemacytometer. Cells were plated onto TRANSWELL membranes (3 μm pore size, Corning, Inc., Corning, N.Y.) that allowed them to remain in contact with the liquid crystal as well as with the growth medium for 24 hours. Cells were plated at a concentration of 20,000 cells/well and allowed to grow. Some cells were tested at a density of confluence, approximately 45,000 cells (FIG. 5A), while another set was tested at a density of sub-confluence, approximately 30,000 cells/well (FIG. 5B). […] Calcein-AM was added to each well, and the cell fluorescence was measured to assess cell number. Fluorescence was read using a SYNERGY HT plate reader (Bio-Tek, Instruments, Inc., Winooksi, Vt.).

[2] = system: SV-40 transformed human corneal epithelial cells (HCEC); type: cell-based; details: SV-40 HCEC, 4 hours under liquid crystal
[3] = system: vesicular stomatitis virus (VSV); type: cell-based; details: 1.5×10^7 pfu VSV, 1 hour at 37° C., supernatant titrated after 2 days
[4] = system: vesicular stomatitis virus (VSV); type: cell-based; details: 2×10^7 pfu VSV, room temperature, 30 minutes, 1 hour or 4 hours
HeLa cells [5] = experiment: Effects of liquid crystals on HeLa cells (morphology and viability); details: DSCG in water; 30% (w/v) A3 in H2O; 21% (w/v) C14AO in H2O with 3% C10OH
Procedure: (§1) HeLa mammalian cell line (from human cervical cancer cells) were grown in poly-L-lysine (MW 30,000 to 70,000)-treated coverslips in a 12-well plate in MEM medium supplemented with 10% fetal bovine serum. HeLa cells were grown in tissue culture plates until the cells reached a confluency of 90 to 95% within 24 hrs and were maintained at 37° C. with 5% CO2.
(§2) After incubation for less than one day, the DMEM was removed, the cells washed with PBS, 250 μl of the liquid crystal solution was overlaid.
(§3) The overlaid cultures were incubated at 37° C. for 4 hours, at which time the liquid crystals were removed, the cells were washed with PBS, and 1 mL of medium DMEM was added back to the cells. The cells were then incubated in the medium at 37° C. for an additional 4 days and then evaluated for morphology and viability.

Human IgG = experiment: Test of antibody binding in lyotropic liquid crystals (FITC anti-Human IgG to immobilized Human IgG); details: 200 nM FITC anti-Human IgG in liquid crystal (10% DSCG), 4 hours, room temperature
[6] = Viscosity of lyotropic liquid crystals; type: physicochemical; details: DSCG 9% wt, Triton 60% wt, Brij 50% wt, AMO 20% wt
Procedure: Lyotropic liquid crystals were investigated for their biocompatibility and bio-inertness based on the following three criteria: (1) viscosity; (2) observed birefringence of the liquid crystal; and (3) protein binding activity when proteins are dissolved in the lyotropic liquid crystals. The stability of protein structure in the lyotropic liquid crystals is implicitly tested based on the evaluation of criterion (3). The binding activity of antibodies in the liquid crystal was tested by covalent attachment of an antibody to a solid surface and measurement of the binding of a fluorescently labeled antibody to the immobilized antibody.

pH of DSCG in water = type: physicochemical
HeLa cells [7] = system: HeLa cells
Procedure: as §1, §2, §3

Compound | VSV growth after inoculation of HeLa cells in the presence of liquid crystal [3] | VSV infectivity after incubation of virus with liquid crystal [4] | antibody binding activity in the lyotropic liquid crystal (in words) (Human IgG) | Viscosity [6] | other results
CCCCCc1ccc(-c2ccc(C#N)cc2)cc1 [5CB, 4-cyano-4′-pentylbiphenyl] |  |  |  |  | cell viability after prolonged exposure [1]: appears to kill cells; toxicity to cells (in words) [2]: toxic
COCCOCCOCCOCc1c(C)c(COCCOCCOCCOC)c(C)c(COCCOCCOCCOC)c1C [A3] | no growth of VSV was observed | no growth of VSV was observed |  |  | appearance of HeLa cells during contact with liquid crystal (HeLa cells [5]): cell membranes started to show a rough appearance (blebbing) and the nuclei condensed
CCCCCCCCCCCCCC[N+](C)(C)[O-] [AMO, tetradecyldimethylamineoxide] |  |  | preserve specific antibody binding activity | 50-200 cp | 
O=C(O)c1cc(=O)c2c(OCC(O)COc3cccc4oc(C(=O)O)cc(=O)c34)cccc2o1 [DSCG, disodium chromoglycate] | VSV can infect cells in the presence of DSCG | VSV is stable in the presence of DSCG; also recorded: the concentration of the virus had not changed significantly | FITC fluorescence was only found in the arrayed spots | 0.5-30 cp | pH (pH of DSCG in water): < 6; HeLa cells after liquid crystal removed and medium added back (HeLa cells [7]): proliferated well after the medium was added; appearance of HeLa cells during contact with liquid crystal (HeLa cells [7]): cells rounded up and detached from the surface
Laurate |  |  | interfered with antibody binding activities | 1-100 cp | 
Triton |  |  | interfered with antibody binding activities | >100 cp | 
